According to patent US11252960B2 (KIMBERLY-CLARK WORLDWIDE, INC., priority 2017, dated 2022):

How the values were obtained:
[1] = system: Aspergillus brasiliensis (ATCC 16404); experiment: Anti-fungal Minimum Inhibitory Concentration (MIC) Method, microbroth dilution; assay type: cell-based; settings: RPMI-1640, 35° C., 48 hours, pH 4.5-adjusted stock
Protocol: (§1) Anti-Bacterial and Anti-Fungal Minimum Inhibitory Concentration (MIC) Method Method: Microbroth Dilution Method (96-well format). Test item: […] Solvent: Sterile MilliQ water and 0.1 M Citrate Buffer pH 4.5 Media used: • Bacterial: Cation-Adjusted Mueller-Hinton Broth (CAMHB) • Fungi: RPMI-1640 Fungi: • Incubation Temperature: • 25° C. (Candida albicans) • 35° C. (Aspergillus brasiliensis) • Incubation Time: 48 hours • Inoculum Size: 5×10^4 cfu/mL • Strains: • Candida albicans (ATCC 10231) • Aspergillus brasiliensis (ATCC 16404) • End point: Inhibition of growth, Spectrophotometer Reading @ 600 nm • Reference standards: […] All solubilized and pH 4.5-adjusted test compounds were filter-sterilized before subjecting to MIC study. […] All the strains were inoculated on their respective agar medium and incubated under conditions/durations detailed above. • Preparation of inoculum: • The bacterial colony suspension in 0.85% saline was adjusted to 1 McFarland's standard using […] which was further diluted to 1:100 in CAMHB. The fungal suspension for inoculation was prepared in 0.85% saline from 6 days old culture (for mold, A. brasiliensis) and from 2 days old culture (for yeast, C. albicans) from Sabouraud Dextrose agar medium. […] Micro titer plates were prepared as per the CLSI recommendations. One hundred and seventy five microliters of Cation-adjusted Muller Hinton Broth (CAMHB) was added to the first column of a 96 well flat bottom plate, which is the media control. Second column is for the stocks of the test compounds and reference standards from which dilutions are made. Then 175 μL of CAMHB was added to the 5th, 8th and 11th columns, 75 μL of CAMHB to the 4th, 7th and 10th columns and 50 μL of CAMHB to the 3rd, 6th and 9th columns and the last column was the organism control.

[2] = system: Candida albicans (ATCC 10231); experiment: as above; assay type: cell-based; settings: RPMI-1640, 25° C., 48 hours, pH 4.5-adjusted stock
Protocol: as §1

[3] = system: Escherichia coli (ATCC 8739); experiment: Anti-bacterial Minimum Inhibitory Concentration (MIC) Method, microbroth dilution; assay type: cell-based; settings: CAMHB, 37° C., 24 hours, pH 4.5-adjusted stock
Protocol: as §1, with “RPMI-1640 […]” for “RPMI-1640”

[4] = system: Burkholderia cepacia (ATCC 25416); experiment: as above; assay type: cell-based; settings: CAMHB, 37° C., 24 hours, pH 4.5-adjusted stock
Protocol: as §1, with “RPMI-1640 […]” for “RPMI-1640”

[5] = system: Staphylococcus aureus (ATCC 6538); experiment: as above; assay type: cell-based; settings: CAMHB, 37° C., 24 hours, pH 4.5-adjusted stock
Protocol: as §1, with “RPMI-1640 […]” for “RPMI-1640”

[6] = system: Pseudomonas aeruginosa (ATCC 9027); experiment: as above; assay type: cell-based; settings: CAMHB, 37° C., 24 hours, pH 4.5-adjusted stock
Protocol: as §1, with “RPMI-1640 […]” for “RPMI-1640”

[7] = assay type: physicochemical; settings: pH 4.5
Protocol: This water was used as a test media for determining the solubility of test/reference items. Stock solutions of concentration 1 mg/mL for test items/reference items was prepared in methanol. The stock solution will be used for preparation of calibration curve standards. Calibration curve of test/reference items was prepared by serially dilution consisting of 4-5-6 concentrations in 96 well format. […] The method was as follows: Calibration curve of test items were prepared by serial dilution consisting of 8 concentrations. […] Water, 50:50). […] 40 mg of test items were weighed into tubes. […] The initial pH of the solubility samples were recorded. […] Then, the solutions were observed visually for any precipitation. […] An aliquot of the supernatant were diluted with equal volume of methanol. […] The samples were then transferred to UV plate and scanned at λmax of that particular test/reference item. Compound #12 was transferred to auto-sampler vials and submitted for LC-MS/MS analysis.

[8] = Determination of Dissociation Constant (pKa) by Potentiometric Titration Method; assay type: physicochemical; settings: ultrapure water, 22° C.
Protocol: Potentiometric Titration Method: A calibrated pH meter was used for the assay. 50 mL solution of each test/reference item solution (0.1 mg/mL) was added to four beakers (two for acid titration and two for base titration). 0.1 N Sodium hydroxide (NaOH) solution was prepared as titrant solution. The pH electrode was placed into the beaker containing test/reference item solution. The initial pH of the solution will be recorded. 100 μL of 0.1 N NaOH was added successively with stirring and the pH at each addition was recorded. Base titrations were carried out individually in duplicates until a sudden shift in the pH was observed.

Compound | MIC (%) A. brasiliensis ([1]; Table 4) [%] | MIC (%) C. albicans ([2]; Table 4) [%] | MIC (%) E. coli ([3]; Table 4) [%] | MIC (%) B. cepacia ([4]; Table 4) [%] | MIC (%) S. Aureus ([5]; Table 4) [%] | MIC (%) P. aeruginosa ([6]; Table 4) [%] | Solubility (wt %) [7] [wt %] | pKa ([8]; pH 4.5, Table 3, 0.1 mg/ml) | MIC (%) A. brasiliensis ([1]; Table 1) [%] | MIC (%) C. albicans ([2]; Table 1) [%] | MIC (%) E. coli ([3]; Table 1) [%] | MIC (%) B. cepacia ([4]; Table 1) [%] | MIC (%) S. Aureus ([5]; Table 1) [%] | MIC (%) P. aeruginosa ([6]; Table 1) [%] | pKa ([8]; pH 4.5, Table 1, 0.1 mg/ml) | other results
O=C(OCC(O)CO)c1ccccc1 (centres unmarked) [Compound 9, Benzoic acid 2,3-dihydroxypropyl ester] | >1 | >1 | 0.5 | 0.25 | 0.25 | 0.5 | >1.0 | > 7 |  |  |  |  |  |  |  | MIC (%) A. brasiliensis ([1]; Table 4, listed as #9): > 1.0%; MIC (%) C. albicans ([2]; Table 4, listed as #9): > 1.0%
O=C(O)c1ccc(OCCO)cc1 [Compound 1, 4-(2-hydroxyethoxy) benzoic acid] |  |  |  |  |  |  | 0.2779 |  | >0.165 | >0.165 | 0.165 | 0.082 | 0.041 | 0.082 | 4.95 | 
O=C(OCCO)c1ccccc1 [Compound 8, Benzoic acid 2-hydroxyethyl ester] | 0.118 | 0.475 | 0.475 | 0.118 | 0.475 | 0.237 | >1.0 | > 7 |  |  |  |  |  |  |  | 
O=C(OCCCCO)c1ccccc1 [Compound 10, Benzoic acid 4-hydroxy-butyl ester] | 0.028 | 0.115 | 0.115 | 0.057 | 0.057 | 0.115 | 0.47 | > 7 |  |  |  |  |  |  |  | 
O=C(O)c1ccc(OC2CC(O)C(CO)O2)cc1 (centres unmarked) [Compound 5, 4-{[4-hydroxy-5-(hydroxymethyl)oxolan-2-yl]oxy}benzoic acid] |  |  |  |  |  |  | 0.11 |  | >0.069 | >0.069 | >0.069 | 0.034 | 0.017 | 0.034 | 5.6 | 
CC(O)COc1ccc(C(=O)O)cc1 (centres unmarked) [Compound 7, 4-(2-hydroxypropoxy) benzoic acid] |  |  |  |  |  |  | 0.123 |  | >0.079 | >0.079 | 0.079 | 0.02 | 0.02 | 0.039 | 5.6 | 
O=C(O)c1ccc(O[C@@H]2O[C@H](CO)[C@H](O)[C@H](O)[C@H]2O)cc1 [Compound 3, 4-{[(3R,4S,5R,6R)-3,4,5-trihydroxy-6-(hydroxymethyl)oxan-2-yl]oxy}benzoic acid] |  |  |  |  |  |  |  |  | >0.87 | >0.87 | >0.87 | >0.87 | >0.87 | >0.87 | 4.5 | MIC (%) A. brasiliensis ([1]; Table 1, listed as #3): > 0.87%; MIC (%) C. albicans ([2]; Table 1, listed as #3): > 0.87%; MIC (%) E. coli ([3]; Table 1, listed as #3): > 0.87%; MIC (%) B. cepacia ([4]; Table 1, listed as #3): > 0.87%; MIC (%) S. Aureus ([5]; Table 1, listed as #3): > 0.87%; MIC (%) P. aeruginosa ([6]; Table 1, listed as #3): > 0.87%
O=C(O)c1ccc(OCCCCO)cc1 [Compound 6, 4-(4-hydroxybutoxy) benzoic acid] |  |  |  |  |  |  | 0.0667 |  | >0.04 | >0.04 | 0.04 | 0.02 | 0.01 | 0.04 | 4.6 | 
O=C(O)c1ccc(OCC(O)CO)cc1 (centres unmarked) [Compound 2, 4-(2,3-dihydroxypropoxy) benzoic acid] |  |  |  |  |  |  | 0.343 |  | >0.181 | >0.181 | 0.181 | 0.09 | 0.045 | 0.09 | 4.6 | 
O=C(O)c1ccc(OC2OC(CO)C(O)C2O)cc1 (centres unmarked) [Compound 4, 4-{[3,4-dihydroxy-5-(hydroxymethyl)oxolan-2-yl]oxy}benzoic acid] |  |  |  |  |  |  | >1.00 |  | >1 | >1 | 1 | 0.25 | 0.125 | 0.5 | 4.6 | 
benzoic acid [reference compound] | 0.137 | 0.137 | 0.07 | 0.034 | 0.068 | 0.068 |  |  | 0.137 | 0.137 | 0.07 | 0.034 | 0.068 | 0.068 |  | 
CCC(O)COC(=O)c1ccccc1 (centres unmarked) [Compound 12, Benzoic acid 2-hydroxy-butyl ester] | 0.0588 | 0.1175 | 0.0588 | 0.1175 | 0.1175 | >0.1175 | 0.24 | > 7 |  |  |  |  |  |  |  | 
